Assay results from patent US20250090510A1, “eIF4G1-eIF1 INHIBITORS AND USE THEREOF” (YEDA RESEARCH AND DEVELOPMENT CO. LTD., priority 2022, published 2025).

How the values were obtained:
[1] = target: T1, eIF4G1 binding to eIF4E-cap complex (Homo sapiens, UniProt Q04637); test: Cap-binding assay on m7GTP cap-analog agarose beads; type: cell-based; conditions: HEK293T; i14G1-10 20 μM, i14G1-12 10 μM; 4 hours
T1 construct: endogenous in cells; host or cells: HEK293T
Experimental: FIGS. 2A-C: The effect of i14G1-10 and i14G1-12 on eIF1-eIF4G1 and eIF4E-eIF4G1 complexes. (2A-B) HA-eIF1 and HA-eIF4E were each transfected into HEK293T cells and 48 h after transfection cells were treated with DMSO or i14G1-10 (2A) or i14G1-12 (2B) for 4 h, followed by immunoprecipitation of HA-eIF1 or HA-eIF4E using anti-HA-agarose beads. Western blot was run to check co-immunoprecipitation of endogenous eIF4G1 with HA-eIF1 or HA-eIF4E. The graphs represent the co-immunoprecipitation of eIF4G1 with HA-eIF1 (right) or HA-eIF4E (left). Co—IP data shown as mean±SEM of 4-7 independent experiments. The asterisks denote statistically significant difference compared to DMSO, according to Student's t-tests (one-tailed, paired). *p<0.05. (2C) HEK293T cells were treated with DMSO, i14G1-10, or i14G1-12 for 4 h, followed by cell lysis. Respective cell lysates were incubated with cap analog (γ-Aminohexyl-m7GTP) beads for 2 h to precipitate bound eIF4E. Western blot was performed to check co-precipitation of eIF4G1 along with eIF4E on the cap-analog beads. The graph represents the binding fraction of eIF4G1 and eIF4E to the cap-analog beads (mean±SEM) with DMSO (black), i14G1-10 (blue), and i14G1-12 (red), n=6. The asterisks denote statistically significant difference compared to DMSO, according to Student's t-tests (one-tailed, paired). *p<0.05; **p<0.01.
Cap-binding Assay. […]

HEK293T cells = test: Cell cycle analysis, propidium iodide flow cytometry; type: cell-based, human; conditions: i14G1-10 20 uM, 16 hours; for cells in S phase / sub-G1 dead cells: i14G1-12 1 uM
Experimental: FIGS. 3A-F: i14G1-10 and i14G1-12 inhibit mRNA translation and sensitize cell survival of eIF4G1 and eIF1 depleted cells. (3A) In-vitro translation using rabbit reticulocyte lysate which was pre-incubated with different concentrations of i14G1-10 or i14G1-12 for 10 minutes followed by the addition of capped firefly luciferase mRNA. After 90 minutes at 30° C., the luminescence signal was measured and the IC50 was calculated. The data represents mean±SEM of 6 independent repeats. (3B) HEK293T cells were treated with DMSO (vehicle control), and sub-cytotoxic concentrations of i14G1-10 (20 μM) and i14G1-12 (10 μM) for 3h. Cell lysates were then subjected to sucrose gradient sedimentation to obtain polysome profiles. (3C) HEK293T cells were treated with the indicated concentrations of i14G1-10 and i14G-12 for 3 h, followed by the addition of puromycin (10 μg/ml) for 5 minutes, after which cells were lysed and analyzed by western blot using an anti-puromycin antibody and anti-GAPDH antibody that serves as a loading control. The graph represents the mean±SEM chemiluminescence signal intensity of puromycin labeling normalized to GAPDH of 3 independent experiments. The calculated IC-50 is shown. (3D) HEK293T cells were transfected with either control or eIF4G1 siRNA in the absence or presence of eIF4G1 expression plasmid. As the eIF4G1 siRNA pool is directed against the 3′UTR, which is absent from the eIF4G1 expression plasmid, the exogenous eIF4G1 is resistant to the siRNA. 48 h after transfection, cells were treated with the indicated concentrations of i14G1-10 and i14G-12 for 3 h, followed by a 5 minutes puromycin pulse as described in 3C. The graph represents the mean±SEM chemiluminescence signal intensity of puromycin labeling normalized to GAPDH of 3 independent experiments. The calculated IC-50 is shown. (3E) The graphs represent cell viability of the indicated cell lines in the presence of increasing concentrations of i14G1-10 and i14G1, analyzed by Luminescent Cell Viability Assay. (3F) Pie charts showing the cell cycle distribution of HEK293T cells treated with DMSO, i14G1-10 and i14G1-12.
Cell cycle and cell viability analyses. HEK293T were treated with DMSO, i14G1-10 (20 uM) and i14G1-12 (1 uM) for 16 hours and then were trypsinized, washed twice with ice cold PBS and fixed overnight in 70% ethanol. Then cells were washed twice with ice cold PBS and resuspended in staining buffer (0.1% triton X-100, 2 mg RNase A and […]), and incubated at 37° C. for 15 minutes. Cells were monitored by BC LSRII flow cytometer and data was analyzed using Modfit Lt Software.
This was true in breast cancer (MCF7), lung cancer (A549), colorectal cancer (HCT116), ovarian cancer (OVCAR8) and in a bone cancer sarcoma cell line (U20S). To examine whether the growth defect is associated with cell cycle progression, control and drug treated cells were subjected to DNA staining by propidium iodide and then a flow cytometry analysis to determine their distribution in the sub-G1 (dead cells), G1, S and G2/M phases of the cell cycle.

T1 sequence (Q04637 whole entry): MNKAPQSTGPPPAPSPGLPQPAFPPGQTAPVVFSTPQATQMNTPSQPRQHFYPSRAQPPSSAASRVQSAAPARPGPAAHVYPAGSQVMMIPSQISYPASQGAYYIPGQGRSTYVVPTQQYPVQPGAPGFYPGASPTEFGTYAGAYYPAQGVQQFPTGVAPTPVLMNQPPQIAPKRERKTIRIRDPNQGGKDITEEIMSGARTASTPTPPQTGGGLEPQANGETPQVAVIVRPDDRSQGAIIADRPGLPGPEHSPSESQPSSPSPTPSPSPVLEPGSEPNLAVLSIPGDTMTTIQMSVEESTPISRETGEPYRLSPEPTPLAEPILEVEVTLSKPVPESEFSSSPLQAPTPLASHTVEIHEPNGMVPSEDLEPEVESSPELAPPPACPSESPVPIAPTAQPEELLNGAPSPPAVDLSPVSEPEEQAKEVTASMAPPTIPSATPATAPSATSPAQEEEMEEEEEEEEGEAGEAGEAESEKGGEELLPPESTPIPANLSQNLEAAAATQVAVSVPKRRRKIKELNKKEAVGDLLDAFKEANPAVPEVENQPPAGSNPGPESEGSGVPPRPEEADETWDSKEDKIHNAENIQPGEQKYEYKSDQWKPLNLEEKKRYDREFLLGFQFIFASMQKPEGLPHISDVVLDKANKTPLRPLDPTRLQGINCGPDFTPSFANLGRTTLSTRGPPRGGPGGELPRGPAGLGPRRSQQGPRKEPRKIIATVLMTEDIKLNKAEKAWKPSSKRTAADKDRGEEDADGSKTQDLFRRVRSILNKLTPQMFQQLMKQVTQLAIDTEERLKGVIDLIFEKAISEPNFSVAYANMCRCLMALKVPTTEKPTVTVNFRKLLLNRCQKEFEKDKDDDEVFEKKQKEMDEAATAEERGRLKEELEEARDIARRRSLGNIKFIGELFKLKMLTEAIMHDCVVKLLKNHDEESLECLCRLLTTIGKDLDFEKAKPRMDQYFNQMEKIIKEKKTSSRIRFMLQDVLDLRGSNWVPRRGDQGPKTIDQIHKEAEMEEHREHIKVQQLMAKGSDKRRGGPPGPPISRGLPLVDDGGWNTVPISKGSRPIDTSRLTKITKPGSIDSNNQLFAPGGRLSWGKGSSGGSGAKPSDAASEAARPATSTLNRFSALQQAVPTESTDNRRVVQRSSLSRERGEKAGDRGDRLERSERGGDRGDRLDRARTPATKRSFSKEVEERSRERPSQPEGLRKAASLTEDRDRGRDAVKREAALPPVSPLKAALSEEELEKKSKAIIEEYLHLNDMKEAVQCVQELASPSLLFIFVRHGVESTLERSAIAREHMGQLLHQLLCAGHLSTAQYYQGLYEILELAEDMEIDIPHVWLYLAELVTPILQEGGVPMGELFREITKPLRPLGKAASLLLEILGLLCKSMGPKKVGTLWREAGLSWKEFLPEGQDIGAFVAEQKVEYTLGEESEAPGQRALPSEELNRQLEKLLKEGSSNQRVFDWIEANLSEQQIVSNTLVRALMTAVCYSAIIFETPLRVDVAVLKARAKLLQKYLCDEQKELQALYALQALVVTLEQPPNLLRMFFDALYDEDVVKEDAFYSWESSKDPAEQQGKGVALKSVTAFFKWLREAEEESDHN
T1 sequence (P06730 2-217 partner limits assumed): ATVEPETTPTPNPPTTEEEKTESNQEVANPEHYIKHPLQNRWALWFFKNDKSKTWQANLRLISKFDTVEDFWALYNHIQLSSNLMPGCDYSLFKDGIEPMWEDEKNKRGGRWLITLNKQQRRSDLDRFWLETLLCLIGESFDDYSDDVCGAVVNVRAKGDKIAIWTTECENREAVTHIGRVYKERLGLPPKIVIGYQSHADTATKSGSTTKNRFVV

Compound | enhancement of eIF4G1 binding to eIF4E-cap complex [1] | cells in G2/M phase of the cell cycle (HEK293T cells) | cells in S phase (HEK293T cells) | sub-G1 dead cells (HEK293T cells)
O=C(/C=C/Sc1ccc(C(F)(F)F)cn1)c1ccccc1 [i14G1-10] | 1.8 folds | dramatic accumulation of cells in the G2/M phase | reduction in S | elevation in sub-G1 dead cells
Cn1ccnc1S/C(=C/C=C(C#N)C#N)c1ccc(Cl)cc1 [i14G1-12] | no significant effect |  | reduction in S | elevation in sub-G1 dead cells
